{"source": "patent EP3095787A1", "about": "“[…] ACTIVE COMPOUNDS AS DAG-LIPASE INHIBITORS” (Universiteit Leiden, priority 2015, dated 2016)", "key": {"cannabinoid CB1 receptor": {"molecular_target": "T1, cannabinoid CB1 receptor (Homo sapiens, UniProt P21554)", "T1 construct": "expressed in transfected cells; host or cells: CHOK1hCB1_bgal (CHO-K1), membranes", "T1 sequence (P21554 whole entry)": "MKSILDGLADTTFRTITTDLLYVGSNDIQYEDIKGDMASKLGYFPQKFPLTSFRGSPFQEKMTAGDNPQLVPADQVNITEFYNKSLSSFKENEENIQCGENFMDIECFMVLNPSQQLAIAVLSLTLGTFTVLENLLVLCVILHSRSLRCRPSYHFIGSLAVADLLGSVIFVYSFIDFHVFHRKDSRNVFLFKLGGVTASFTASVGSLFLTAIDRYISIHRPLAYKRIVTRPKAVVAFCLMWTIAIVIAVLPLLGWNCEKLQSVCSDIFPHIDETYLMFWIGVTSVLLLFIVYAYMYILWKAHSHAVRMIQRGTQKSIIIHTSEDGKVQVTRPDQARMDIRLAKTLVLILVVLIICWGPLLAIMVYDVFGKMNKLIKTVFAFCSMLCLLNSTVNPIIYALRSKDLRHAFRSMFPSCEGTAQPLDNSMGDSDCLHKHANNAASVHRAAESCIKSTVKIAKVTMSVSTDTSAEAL", "assay": "[3H]CP55940 displacement assay on CHOK1hCB1_bgal membranes", "assay_type": "binding", "experimental": "CHOK1hCB1_bgal cells (CHOK1 cell line expressing human cannabinoid receptor 1) were cultured in Ham's F12 Nutrient Mixture supplemented with 10% fetal calf serum, 1 mM glutamine, 50 U/mL penicillin, 50 µg/ml streptomycin, […] hygromycin and 800 µg/mL geneticin in a humidified atmosphere at 37°C and 5% CO2. Cells were subcultured twice a week at a ratio of 1:20 on 10-cm ø plates by trypsinization. For membrane preparation the cells were subcultured 1:10 and transferred to large 15-cm diameter plates.\nThe cells on thirty 15-cm ø plates were detached from the bottom by scraping them into 5 mL phosphate-buffered saline (PBS), collected in 12 mL Falcon tubes and centrifuged for 5 minutes at 200 x g (3,000 rpm). The pellets were resuspended in ice-cold 50 mM Tris-HCl buffer and 5 mM MgCl2 (pH 7.4). […] Membrane protein concentrations were measured using the BCA method.\n[^3H]CP55940 displacement assays were used for high throughput screening of cold ligands and the determination of their affinity (Ki) and IC50 values. […] Nonspecific binding was determined in the presence of 10 µM AM630 (6-lodopravadoline; a selective inverse agonist for the cannabinoid receptor CB2). […] After 2 hours, the filter-bound radioactivity was determined by scintillation spectrometry using a Tri-Carb 2900 TR liquid scintillation counter (Perkin Elmer, Boston, MA)."}, "hDAGL-α": {"molecular_target": "T2, hDAGL-α (Homo sapiens, UniProt Q9Y4D2)", "T2 sequence (Q9Y4D2 1-1042)": "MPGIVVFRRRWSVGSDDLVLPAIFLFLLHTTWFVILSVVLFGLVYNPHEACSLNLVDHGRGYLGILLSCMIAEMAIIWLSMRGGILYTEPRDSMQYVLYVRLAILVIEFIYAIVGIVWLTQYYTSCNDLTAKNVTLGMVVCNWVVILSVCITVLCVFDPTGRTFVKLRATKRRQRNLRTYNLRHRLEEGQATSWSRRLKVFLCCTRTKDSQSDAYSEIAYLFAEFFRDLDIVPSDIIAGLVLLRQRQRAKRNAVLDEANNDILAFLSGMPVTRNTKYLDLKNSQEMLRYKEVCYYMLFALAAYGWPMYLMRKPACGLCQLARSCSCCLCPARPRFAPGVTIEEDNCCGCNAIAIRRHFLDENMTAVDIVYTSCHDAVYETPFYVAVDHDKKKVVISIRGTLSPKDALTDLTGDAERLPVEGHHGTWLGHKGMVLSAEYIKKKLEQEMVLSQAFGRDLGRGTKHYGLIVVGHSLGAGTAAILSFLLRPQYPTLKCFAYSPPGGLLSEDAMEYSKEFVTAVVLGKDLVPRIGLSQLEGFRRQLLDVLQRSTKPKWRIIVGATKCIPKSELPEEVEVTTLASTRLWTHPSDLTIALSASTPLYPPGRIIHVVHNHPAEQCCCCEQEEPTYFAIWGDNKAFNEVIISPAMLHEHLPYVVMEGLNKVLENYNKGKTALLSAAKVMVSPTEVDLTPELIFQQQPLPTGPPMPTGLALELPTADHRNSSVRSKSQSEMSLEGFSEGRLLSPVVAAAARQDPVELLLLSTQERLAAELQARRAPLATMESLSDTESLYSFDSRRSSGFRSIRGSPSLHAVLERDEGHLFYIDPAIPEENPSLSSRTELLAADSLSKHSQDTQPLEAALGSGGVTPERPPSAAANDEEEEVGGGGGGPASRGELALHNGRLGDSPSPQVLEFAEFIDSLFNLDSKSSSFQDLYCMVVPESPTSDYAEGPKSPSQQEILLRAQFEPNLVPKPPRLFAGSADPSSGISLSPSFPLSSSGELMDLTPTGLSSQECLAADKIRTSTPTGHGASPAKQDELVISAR", "assay": "Mode of action (reversibility) experiment: size exclusion chromatography, then MB064 labeling", "assay_type": "biochemical", "design": "expressed in transfected cells", "conditions": "pre-incubation at IC80 concentration; remaining activity visualized with MB064; n=3", "experimental": "To determine the mode of action (reversible versus irreversible) of the inventive compounds, an experiment in which human DAGL-α membranes were pre-incubated at the IC80 concentration of compound 25 or the irreversible DAGL inhibitor KT-109 was performed."}}, "data": [{"smiles": "Cc1ccc(-c2cnc3nc(C(=O)CCCCCc4ccccc4)oc3c2)cc1", "note": "[Compound 25, 1-(6-(p-Tolyl)oxazolo[4,5-b]pyridin-2-yl)-6-phenylhexan-1-one]", "values": [{"measurement": "displacement of 3H-CP55940 from the CB1 receptor", "setting": "cannabinoid CB1 receptor; 10 µM", "value": "did not displace"}, {"measurement": "Ki", "setting": "cannabinoid CB1 receptor; CB1 receptor radioligand displacement", "value": "> 10", "unit": "µM"}, {"measurement": "recovery of DAGL-α activity after size exclusion chromatography", "setting": "hDAGL-α", "value": "reversibility"}]}]}
